From patent publication US9279811B2, “Methods and kits that identify tumors responsive to Src inhibitors” (OREGON HEALTH & SCIENCE UNIVERSITY, priority 2011, dated 2016)

What was measured:
Format in all cases: cell-based, human
[1] = system: ACHN VHL WT cells; experiment: Cell cycle analysis by flow cytometry (PI staining), ACHN VHL WT
Method: (§1) Transduction of empty retroviral vector (pBabe) served as a negative control.
(§2) Flow Cytometry: Cells were plated at a density such that they were no more than 70% confluent on the day of analysis. […] For propidium iodide staining, cells were trypsinized, collected by centrifugation and washed in PBS prior to fixing in 70% v/v ethanol. Ethanol was removed by washing in PBS. Cells were incubated with 100 μg/ml RNase A (Sigma) for 5 minutes and stained with 50 μg/ml PI for 30 minutes. […] Cells were stained with fluorescein isothiocyanate (FITC)-conjugated anti-BrdU antibodies (BD Biosciences) according to the manufacturer's instructions. Following multiple washes in blocking solution and PBS, cells were stained with 5 μg/ml PI for 30 minutes. The PI or BrdU/PI-stained samples were analyzed by an LSR® FACS (Becton Dickinson) and the cell cycle profile was analyzed with the FlowJo® software (Tree Star Inc.). Phosphoprotein flow cytometry analysis was performed as previously described in Shah N P et al, Cell 14, 485 (2008), incorporated by reference herein.

[2] = system: SN12C VHL WT; experiment: Cell cycle analysis of HIF-α mutant cell lines, SN12C, VHL WT; details: 48 hours post treatment
Method: as §1, §2

[3] = system: ACHN shVHL cells; experiment: Cell cycle analysis by flow cytometry (PI staining), ACHN shVHL
Method: as §1, §2

[4] = system: SN12C cells expressing constitutively stable HIF-2α-P405A, P853A; experiment: Cell cycle analysis of HIF-α mutant cell lines, SN12C HIF-2α; details: 48 hours post treatment
Method: as §1, §2

[5] = system: ACHN VHL WT; experiment: Cell cycle analysis of HIF-α mutant cell lines, ACHN, VHL WT; details: 48 hours post treatment
Method: as §1, §2

[6] = system: SN12C shVHL cells; experiment: Cell cycle analysis by flow cytometry (PI staining), SN12C shVHL
Method: as §1, §2

[7] = system: ACHN cells expressing constitutively stable HIF-2α-P405A, P853A; experiment: Cell cycle analysis of HIF-α mutant cell lines, ACHN HIF-2α; details: 48 hours post treatment
Method: as §1, §2

[8] = system: SN12C VHL WT cells; experiment: Cell cycle analysis by flow cytometry (PI staining), SN12C VHL WT
Method: as §1, §2

[9] = system: SN12C-shVHL cells; experiment: Cell proliferation assay (cell count), SN12C-shVHL
From the text: (§3) Cells were split to sustain log phase growth.

[10] = system: VHL-WT SN12C cells; experiment: Cell proliferation assay (cell count), SN12C
From the text: as §3

With `Cc1nc(Nc2ncc(C(=O)Nc3c(C)cccc3Cl)s2)cc(N2CCN(CCO)CC2)n1` [dasatinib] the “Cell population (%) in G1” value ([1]; dasatinib 25 nM) was 59.7%, the “Cell population (%) in G2/M” value ([1]; dasatinib 25 nM) was 12.6% and the “Cell population (%) in S” value ([1]; dasatinib 25 nM) was 25.8%. For the same molecule, the “Cell population (%) in G1” value ([1]; dasatinib 50 nM) was 62.1%, the “Cell population (%) in G2/M” value ([1]; dasatinib 50 nM) was 16.0% and the “Cell population (%) in S” value ([1]; dasatinib 50 nM) was 17.6%. For the same molecule, the “Cell population (%) in G1” value ([1]; dasatinib 100 nM) was 64.5%, the “Cell population (%) in G2/M” value ([1]; dasatinib 100 nM) was 14.9% and the “Cell population (%) in S” value ([1]; dasatinib 100 nM) was 15.7%. The “Cell population (%) in G1” value ([2]; dasatinib 25 nM) was 60.1%, the “Cell population (%) in G2/M” value ([2]; dasatinib 25 nM) was 13.3% and the “Cell population (%) in S” value ([2]; dasatinib 25 nM) was 25.1%. For the same molecule, the “Cell population (%) in G1” value ([2]; dasatinib 50 nM) was 59.2%, the “Cell population (%) in G2/M” value ([2]; dasatinib 50 nM) was 11.4% and the “Cell population (%) in S” value ([2]; dasatinib 50 nM) was 27.6%. For the same molecule, the “Cell population (%) in G1” value ([2]; dasatinib 100 nM) was 60.4%, the “Cell population (%) in G2/M” value ([2]; dasatinib 100 nM) was 11.1% and the “Cell population (%) in S” value ([2]; dasatinib 100 nM) was 26.5%. For the same molecule, the “Cell population (%) in G1” value ([3]; dasatinib 25 nM) was 50.2%, the “Cell population (%) in G2/M” value ([3]; dasatinib 25 nM) was 9.8% and the “Cell population (%) in S” value ([3]; dasatinib 25 nM) was 37.4%. For the same molecule, the “Cell population (%) in G1” value ([3]; dasatinib 50 nM) was 47.6%, the “Cell population (%) in G2/M” value ([3]; dasatinib 50 nM) was 14.2% and the “Cell population (%) in S” value ([3]; dasatinib 50 nM) was 36.7%. For the same molecule, the “Cell population (%) in G1” value ([3]; dasatinib 100 nM) was 46.1%, the “Cell population (%) in G2/M” value ([3]; dasatinib 100 nM) was 10.9% and the “Cell population (%) in S” value ([3]; dasatinib 100 nM) was 40.8%. For the same molecule, the “Cell population (%) in G1” value ([4]; dasatinib 25 nM) was 54.8%, the “Cell population (%) in G2/M” value ([4]; dasatinib 25 nM) was 20.6% and the “Cell population (%) in S” value ([4]; dasatinib 25 nM) was 23.6%. For the same molecule, the “Cell population (%) in G1” value ([4]; dasatinib 50 nM) was 55.7%, the “Cell population (%) in G2/M” value ([4]; dasatinib 50 nM) was 22.1% and the “Cell population (%) in S” value ([4]; dasatinib 50 nM) was 21.4%. For the same molecule, the “Cell population (%) in G1” value ([4]; dasatinib 100 nM) was 49.7%, the “Cell population (%) in G2/M” value ([4]; dasatinib 100 nM) was 21.3% and the “Cell population (%) in S” value ([4]; dasatinib 100 nM) was 27.8%. For the same molecule, the “Cell population (%) in G1” value ([5]; dasatinib 25 nM) was 59.2%, the “Cell population (%) in G2/M” value ([5]; dasatinib 25 nM) was 17.1% and the “Cell population (%) in S” value ([5]; dasatinib 25 nM) was 21.6%. For the same molecule, the “Cell population (%) in G1” value ([5]; dasatinib 50 nM) was 56.4%, the “Cell population (%) in G2/M” value ([5]; dasatinib 50 nM) was 16.0% and the “Cell population (%) in S” value ([5]; dasatinib 50 nM) was 25.1%. For the same molecule, the “Cell population (%) in G1” value ([5]; dasatinib 100 nM) was 60.1%, the “Cell population (%) in G2/M” value ([5]; dasatinib 100 nM) was 22.0% and the “Cell population (%) in S” value ([5]; dasatinib 100 nM) was 17.6%. For the same molecule, the “Cell population (%) in G1” value ([6]; dasatinib 25 nM) was 45.2%, the “Cell population (%) in G2/M” value ([6]; dasatinib 25 nM) was 17.5% and the “Cell population (%) in S” value ([6]; dasatinib 25 nM) was 36.9%. For the same molecule, the “Cell population (%) in G1” value ([6]; dasatinib 50 nM) was 45.4%, the “Cell population (%) in G2/M” value ([6]; dasatinib 50 nM) was 15.7% and the “Cell population (%) in S” value ([6]; dasatinib 50 nM) was 38.5%. For the same molecule, the “Cell population (%) in G1” value ([6]; dasatinib 100 nM) was 46.1%, the “Cell population (%) in G2/M” value ([6]; dasatinib 100 nM) was 18.5% and the “Cell population (%) in S” value ([6]; dasatinib 100 nM) was 35.3%. For the same molecule, the “Cell population (%) in G1” value ([7]; dasatinib 25 nM) was 53.9%, the “Cell population (%) in G2/M” value ([7]; dasatinib 25 nM) was 16.1% and the “Cell population (%) in S” value ([7]; dasatinib 25 nM) was 27.7%. For the same molecule, the “Cell population (%) in G1” value ([7]; dasatinib 50 nM) was 51.9%, the “Cell population (%) in G2/M” value ([7]; dasatinib 50 nM) was 19.3% and the “Cell population (%) in S” value ([7]; dasatinib 50 nM) was 27.0%. For the same molecule, the “Cell population (%) in G1” value ([7]; dasatinib 100 nM) was 55.3%, the “Cell population (%) in G2/M” value ([7]; dasatinib 100 nM) was 17.7% and the “Cell population (%) in S” value ([7]; dasatinib 100 nM) was 24.2%. For the same molecule, the “Cell population (%) in G1” value ([8]; dasatinib 25 nM) was 59.5%, the “Cell population (%) in G2/M” value ([8]; dasatinib 25 nM) was 15.0% and the “Cell population (%) in S” value ([8]; dasatinib 25 nM) was 23.9%. The “Cell population (%) in G1” value ([8]; dasatinib 50 nM) was 63.6%, the “Cell population (%) in G2/M” value ([8]; dasatinib 50 nM) was 11.7% and the “Cell population (%) in S” value ([8]; dasatinib 50 nM) was 22.8%. For the same molecule, the “Cell population (%) in G1” value ([8]; dasatinib 100 nM) was 70.0%, the “Cell population (%) in G2/M” value ([8]; dasatinib 100 nM) was 11.7% and the “Cell population (%) in S” value ([8]; dasatinib 100 nM) was 16.3%.

With `Cc1ccc(NC(=O)c2ccc(CN3CCN(C)CC3)cc2)cc1Nc1nccc(-c2cccnc2)n1` [imatinib] the effect on proliferation [9] was “had no effect on the proliferation” and the effect on proliferation [10] was “had no effect on the proliferation”.
